Read-outs that look alike come from different tables or passages of the source.
Experiments:
venous serum sugar level = assay: Test 1-C: bioassay in pigs, serum sugar level; format: in vivo, Yorkshire pigs; details: 8 I.U. intravenously
Text: FIG. 7 is a comparison of the venous serum sugar levels of two pigs, one given the composition of Example 1 and one given Actrapid. The venous serum sugar level of the pig given Example 1 is denoted by "o" and the venous serum sugar level of the pig given actrapid is denoted by "x". The x axis is in minutes and the y axis is in millimoles of serum glucose.
In this test, the oral insulin composition of Example 1 was compared with Actripid intravenous insulin solution (Novo) in a bioassay. Two Yorkshire pigs were fasted overnight and one pig was given 8 I.U. of the Actripid insulin intravenously. The other pig was given an intravenous infusion over a period of 15 minutes of 8 I.U. of the oral insulin composition of Example 1 that had been dissolved into 50 ml of water. Blood was taken from the pair of pigs and the serum sugar levels were measured. […] (See FIG. 7.)

plasma glucose level = assay: Test 12B: plasma glucose in a female dog; format: in vivo
Procedure: Hypoglycemic action of the formulation was compared to that of intra-duodenally administered regular injectable insulin (novo actrapid insulin, 1.0 IU per Kg) and of intravenously administered regular injectable insulin (novo actrapid insulin, 0.5 IU per Kg). After infusion of 1.26 IU of regular injectable insulin, intravenously, the plasma glucose level dropped from […] within 20 minutes and returned to […] within 3 hours. Then, 6 IU of regular injectable insulin was intra-duodenally given.

[1] = system: blood sugar (hypoglycemic effect); assay: Test 1-D: intravenous rabbit bioassay; format: in vivo, white rabbits; details: rabbits, 4 I.U. i.v.; after completion of the infusion
Procedure: FIG. 8 is a comparison of Tong-Shin insulin, the oral insulin of Example 1, and Novo insulin, pursuant to the test of Test 1-D.
In this test, the oral insulin composition of Example 1 was compared with Novo monocomponent porcine crystalline insulin and a regular injectable insulin-40 (Tong-Shin Pharmaceutical Co.) in intravenous rabbit bioassays. Three white rabbits, each weighing 1.8 Kg were fasted overnight and were treated with an intravenous infusion over ten minutes of 4 I.U. of either the Novo insulin, the Tong-Shin insulin-40, or an emulsion comprising the oral insulin composition of Example 1. A venous blood sample was collected from the ear vein of each of the rabbits at 30 minutes prior to the insulin infusion and at times 0, 15, 30, 45, 60, 75, 90 and 105 minutes after completion of the infusions.

blood glucose levels = assay: Test 1-E: oral insulin in healthy male volunteers, blood glucose; format: in vivo, human
Procedure: In this test, the oral insulin composition of Example 1 was administered orally to two healthy male volunteers.
Two healthy volunteers, weighing 52 and 54 Kg participated in the study. Each subject received a 16 I.U. dose of the oral insulin composition of Example 1 during the study. Along with the oral insulin composition of Example 1, each participant received two capsules of lipolytic enzymes. Each capsule consisted of:
The enzyme capsules were made as follows: Pancreatic Lipase was coated with 0.1 to 0.3 microns thick coating of hydroxypropylecellulose and enteric coated with the coating of Example 1. Amylase and Protease were then added. The resultant composition was then coated with 0.1 micron of hydroxypropylcellulose. Bile Salts that had been coated with 0.1 micron of hydroxypropylcellulose was then added to a hard gel capsule with the Pancreatic Lipase resultant product.
At 7:30 am on the day of the trial, each participant consumed a standard breakfast consisting of two fried eggs, two strips of bacon, two slices of toasted dark bread, a tablespoon of butter, and cup of black coffee. The insulin composition of Example 1 was administered orally at 10:00 am to both subjects. The oral insulin was administered in capsules comprising 16 I.U. of Novo crystalline monocomponent porcine insulin. At 12:00 both subjects consumed a standard lunch consisting of 180 gm of beef steak, a tossed green salad with oil and vinegar dressing, a piece of dark bread, and black coffee.
Blood samples were collected from the subject at 10:00, 13:00 and 16:00 and were analyzed for blood glucose levels.
One week later, both volunteers had the standard breakfast (i.e., the breakfast given on the first day of the test) at the same time. At 10:00 both subjects received a subcutaneous injection of 16 I.U. of Tong-Shin regular injectable insulin-40. At approximately 10:30 both subjects began to experience hypoglycemic reactions which lasted for roughly two hours. Both subjects were served pure orange juice at 11:20 and were served the standard lunch at 12:00.

serum glucose = assay: Test 5-A: hypoglycemic effects (serum glucose); format: in vivo, human
Procedure: (§1) The bioavailability of insulin and its corresponding hypoglycemic effects of Example 4 and Example 5 oral insulin preparations were studied in a group of IDDM and NIDDM patients. Example 4 oral insulin was also studied in two normal, healthy male volunteers. In all of the tests set forth in 5-A, the subjects received with each dose of oral insulin two capsules of the lipolytic enzyme of Test 1-E.
(§2) At least 12 or 24 hours prior to the study the patients normal anti-diabetic therapeutic agents were withheld from the patients. After overnight fasting and fasting throughout the entire period of the study, Example 4 or Example 5 oral insulin preparations were orally administered.
(§3) A venous sampling catheter was placed into a vein, usually at the antecubital vein, and blood samples were drawn at time 0, 1.0, 1.5, 2.0, 2.5, 3.0, 4.0 and/or 5.0 hours after the drug administration. Serum glucose was measured on a Gilfordx400, and serum insulin was analyzed by using an Immuno-Enzymatic o-Phenylendiamine (OPD) method and Insulin-B test kit of WAKO (Japan). All measurements were made in duplicate.
(§4) As stated above, two healthy male volunteers […] participated in the study. One subject received the oral insulin of Example 4 twice over a two week period, once each week, receiving 0.20 and 0.27 IU per Kg of the oral insulin. […] Serum insulin level was peaked to 20 micro-U per ml occurring at 1.5 hours after the drug ingestion on both occasions.
The second volunteer received 10 IU of regular injectable insulin-40 (of Tong Shin Pharm. Co. of Seoul, Korea), subcutaneously. […] They were given a glass of fresh orange juice and serum glucose level rose to about 115 mg/dl within one hour.
(§5) Five IDDM Patients have completed all three phases of the study of test 5-A: i.e., they received 10 IU, subcutaneous injection of regular injectable insulin-40 (of Tong Shin Pharm Co. of Seoul, Korea) the first week; they received one single oral dosing of Example 4 (0.544 IU/kg average dose) one week later; and the next week they received 9 consecutive dosings of Example 4 (average dose was 0.544 IU/kg), given at 6-hour intervals.
The Oral Insulin Example 4 was given to a total of 8 IDDM patients (10 trials) (two repeated the study) and 7 NIDDM patients (11 trials) (four patients repeated the study).
Seven IDDM Patients completed the study after oral administration of a single dose of the Example 5 oral insulin preparation.

[2] = Test 5-A: bioavailability of insulin (serum insulin); format: in vivo, human; details: Regular Insulin 0.172 IU/Kg s.c.; Example 4 0.544 IU/Kg oral 1st dose; Example 5 0.649 IU/Kg oral 1st, fasting
Procedure: as §1, §2, §3, §4, §5

serum glucose levels = assay: Test 8: serum glucose in IDDM patients; format: in vivo, human; details: Regular Insulin 0.172 IU/Kg s.c., Oral Insulin 0.649 IU/Kg
Text: Seven Insulin-Dependent Diabetics (IDDM) patients, 6 males and one person, between 24 to 47 years old (average 34.4) weighing between 48 and 68 Kg each (average 58.6 kg) took between 32 to 48 (average 42.6) International Units of Oral Insulin Formulation of Example 7, orally, after fasting overnight and fasting throughout the study.
(§6) Each subject in Test 8 was given two capsules of the lipolytic enzyme composition set forth in Test 1-E with each dose of oral insulin.

[3] = Test 8: bioavailability of insulin (insulin levels in serum); format: in vivo, human; details: Reg. Insulin 0.172 IU/Kg s.c.; Oral Insulin 0.630 IU/Kg; IDDM
Procedure: In two IDDM patients, bioavailability of insulin (insulin levels in serum) was measured after oral administration of Oral Insulin Formulation of Example 7 (0.63 I.U./Kg).
Compared to 0.172 IU/Kg of Regular Insulin, subcutaneous injection in 5 IDDM patients, the `pharmacokinetic and bioavailability` of insulin are as follows:
as §6

hypoglycemic response [4] = details: oral, 150 IU/Kg, rabbits; cited from earlier work
hypoglycemic response [5] = details: aerosol, 2.5 U/Kg, rabbits; cited from earlier work
[6] = buccal, cocoa fat base and surfactant, dogs; cited from earlier work
[7] = intra-nasal, dogs; cited from earlier work
hypoglycemic effect [8] = details: oral with isopropylfruorophosphate and indole-3-acetate, rats; cited from earlier work
hypoglycemic response [9] = details: oral with pancreas inactivating agents; cited from earlier work
blood sugar level = details: oral with surfactants; cited from earlier work
hypoglycemic effect [10] = details: water/oil/water emulsion, rats; cited from earlier work
[11] = cited from earlier work
hypoglycemic effect [12] = details: other emulsion systems with fat soluble vitamins, dogs; cited from earlier work
[13] = Regular Insulin 0.172 IU/Kg s.c., Example 4 0.544 IU/Kg oral 1st dose, Example 5 0.649 IU/Kg oral 1st, fasting

## Actripid insulin: intravenous insulin solution (Novo)
Venous serum sugar level
  decrease of venous serum sugar level, compared between the two insulins: decreased by roughly an equal degree
Plasma glucose level; 1.26 IU intravenous
  plasma glucose level before infusion: 102 mg/dL
Plasma glucose level; 1.26 IU intravenous, within 3 hours
  plasma glucose level, return: 100 mg/dL
Plasma glucose level; 6 IU intra-duodenal, over three hours
  change of blood glucose level: No changes in the blood glucose levels

## Novo insulin: Novo monocomponent porcine crystalline insulin
[1]
  time of peak hypoglycemic effect: ≤ 30 min

## Regular Insulin
[1]
  time of peak hypoglycemic effect: 60 min
Blood glucose levels; 16 I.U. subcutaneous
  duration of hypoglycemic reactions: roughly two
  time of peak hypoglycemic effect: roughly 3 hours
Blood glucose levels; 16 I.U., 6 hours
  blood glucose / effect after six hours: the effect disappeared by 6 hours after administration
Serum glucose; [13]
  CO, base value of Serum Glucose: 271 mg/dL
  Cmin, minimum value of glucose: 94.5 mg/dL
  T100, time to reach 100 mg/dl of serum glucose: 2.1
  TC-min, time of observing the minimum glucose level: 4.0
  dC/dT, rate of reduction in Serum Glucose levels: 59.16
Serum glucose; healthy volunteer, 10 IU subcutaneous
  time of insulin-induced shock symptoms: 72 min
Serum glucose; healthy volunteer, 10 IU subcutaneous, 72 minutes
  serum glucose at time of shock symptoms: 47 mg/dL
Serum glucose; healthy volunteer, 10 IU subcutaneous, within one hour of orange juice
  serum glucose after orange juice: about 115 mg/dl
[2]
  IO, base value of Serum Insulin: 8.0 micro-U/ml
  Imax, maximum value of insulin: 20.3 micro-U/ml
  TI-O, time to reach the base value of Serum Insulin level: 4.8
  TI-max, time to reach the maximum Serum insulin level: 1.5
  dI/dT, rate of rise of serum insulin level: 38.29
Serum glucose levels
  CO (printed 00), base value of glucose: 271 Mg/dl
  Cmin, minimum value of glucose observed: 94.5 Mg/dl
  T100, time to reach 100 mg/dl: 2.1
  TC-min, time of observing the minimum glucose level: 4.0
  dC/dT, rate of hypoglycemic action: 59.16
[3]
  IO, base value of insulin: 8.0 micro-U/ml
  Imax, maximum value of serum insulin: 20.3 micro-U/ml
  TI-O, time to reach the base value of serum insulin: 4.8
  TI-max, time of observing the maximum value of serum insulin: 1.5
  dI/dt, rate of rise of serum insulin (absorption rate): 38.29

## beta-Naphthyl-azo-Polystearryle-insulin
Hypoglycemic response [4]
  hypoglycemic response: induced a hypoglycemic response

## insulin
Hypoglycemic response [5]
  hypoglycemic response: induced hypoglycemic response
[6]
  bioavailability: only poor bioavailability
[7]
  bioavailability: high bioavailability
Hypoglycemic effect [8]
  hypoglycemic effect: induce a hypoglycemic effect
Hypoglycemic response [9]
  bioavailability equivalent of hypoglycemic response: 3%
Blood sugar level
  intravenous dose with effect on blood sugar equivalent to 35 units orally: 4 units
Hypoglycemic effect [10]
  intramuscular dose with effect equivalent to 250 IU/Kg orally: 10 IU/Kg
[11]
  bioactivity after oral administration: low bioactivities
Hypoglycemic effect [12]
  hypoglycemic effects: mild and not dose responsive

Reference: patent US4849227A, “Pharmaceutical compositions” (Eurasiam Laboratories, Inc., priority 1987, dated 1989)
